Assay [1] addresses T1, adrenergic, beta-1 (human) (Homo sapiens, UniProt P08588).
T1 construct: expressed in transfected cells; host or cells: Sf9 insect cells (membranes)
Put plainly: adrenergic, beta-1 (human) binding assay; human recombinant Sf9 cells, membranes, Europium time-resolved fluorescence. Type of assay: biochemical. The note with it: Table 2, 30 nM isoproterenol. As to the method: The compound of interest is added to the membrane and then incubated for ten minutes. Thereafter, 100 nM GTP-Eu is added and incubated for an additional thirty minutes. Europium fluorescence is measured in a time-resolved fluorometer in order to ascertain any functional antagonist activity at the adrenergic beta 1 site. […] Briefly, Human recombinant Sf9 cells were used, wherein reactions were carried out in 50 mM HEPES [pH 7.4] containing 3 mM MgCl2, 0.1 μM GDP, 10 μm/mL Saoonin, and 1 mM DTT (dithiothreitol). The compound of interest was added to the membrane and then incubated for ten minutes at room temperature. Then, 30 nM of isoproterenol [final] to each well was added and allowed to incubate for an additional 30 minutes. Europium fluorescence was measured in a time-resolved fluorometer in order to ascertain any functional antagonist activity at the adrenergic beta-1 site. […] Briefly, Human recombinant Sf9 cells were used, wherein reactions were carried out in 50 mM HEPES [pH 7.4] containing 3 mM MgCl2, 0.1 μM GDP, 10 μm/mL Saoonin, and 1 mM DTT (dithiothreitol). The compound of interest was added to the membrane and then incubated for ten minutes at room temperature. Then, 30 nM of isoproterenol [final] to each well was added and allowed to incubate for an additional 30 minutes. Europium fluorescence was measured in a time-resolved fluorometer in order to ascertain any functional antagonist activity at the adrenergic beta-1 site.

Assay [2] addresses T2, adrenergic, beta-2 (human) (Homo sapiens, UniProt P07550).
T2 construct: endogenous in cells; host or cells: HL-60 (human promyelocytic leukemia cells)
Put plainly: adrenergic, beta-2 (human) binding assay; HL-60 cells, isoproterenol, EIA read-out. To be noted: 100 nM isoproterenol, 20 minutes at room temperature. Type of assay: cell-based. As to the method: With respect to beta-2 adrenergic activity, for example, human promyelocytic leukemia cells (HL-60 cells) can be washed and added to physiological buffer. […] Thereafter, 100 nM (final) isoproterenol is added. After twenty minutes at room temperature, cells are centrifuged, buffer removed, and 0.1M HCl is added to stop reaction. […] Pharmacol. 27(1):33-54.
Briefly, human promyelocytic leukemia cells (HL-60 cells) were washed and physiological buffer was added before analysis. To this was added 300 μM IBMX to inhibit phosphodiesterase. […] Cells were then centrifuged, buffer removed and 0.1 M HCL was added to stop the reaction.

The structures appear in SMILES notation.

T2 sequence (P07550 whole entry): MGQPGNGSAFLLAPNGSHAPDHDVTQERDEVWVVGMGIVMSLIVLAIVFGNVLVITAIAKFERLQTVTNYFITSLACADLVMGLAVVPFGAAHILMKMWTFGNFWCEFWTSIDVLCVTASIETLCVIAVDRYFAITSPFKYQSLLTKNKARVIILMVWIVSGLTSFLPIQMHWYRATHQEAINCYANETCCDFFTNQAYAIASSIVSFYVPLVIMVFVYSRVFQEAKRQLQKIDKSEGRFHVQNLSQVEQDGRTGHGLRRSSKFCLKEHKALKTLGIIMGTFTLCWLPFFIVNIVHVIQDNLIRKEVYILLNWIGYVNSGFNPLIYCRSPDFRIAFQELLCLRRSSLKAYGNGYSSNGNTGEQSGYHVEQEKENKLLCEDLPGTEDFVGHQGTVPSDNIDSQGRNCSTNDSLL
T1 sequence (P08588 whole entry): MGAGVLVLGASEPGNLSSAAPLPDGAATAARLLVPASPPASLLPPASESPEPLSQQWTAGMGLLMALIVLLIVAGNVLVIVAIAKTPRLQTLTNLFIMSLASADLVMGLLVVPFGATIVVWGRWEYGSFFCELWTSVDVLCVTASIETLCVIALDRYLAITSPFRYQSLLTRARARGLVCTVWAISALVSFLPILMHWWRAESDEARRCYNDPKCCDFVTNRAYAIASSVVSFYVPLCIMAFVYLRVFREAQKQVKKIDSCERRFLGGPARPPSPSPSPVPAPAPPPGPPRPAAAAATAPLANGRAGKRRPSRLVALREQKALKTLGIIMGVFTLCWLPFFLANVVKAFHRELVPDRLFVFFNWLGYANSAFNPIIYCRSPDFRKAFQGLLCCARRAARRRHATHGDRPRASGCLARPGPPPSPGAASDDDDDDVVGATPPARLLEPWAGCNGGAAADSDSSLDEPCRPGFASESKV

Consider `COCCOCCOCCO[C@@H](CNC(C)C)COc1cccc2ccccc12` [Propranolol Conjugate A], for which the IC50 in assay [1] was 1790 nM; in assay [2] (Table 1, 300 μM IBMX) it was 112 nM.

For the compound `COCCOCCOCCOCC(=O)O[C@H](COc1cccc2ccccc12)CN(C(=O)COCCOCCOCCOC)C(C)C` [Propranolol Conjugate B], the IC50 in assay [1] turned out to be 3810 nM; in assay [2] (Table 1, 300 μM IBMX) it was 13200 nM.

`COCCOCCOCCOCCOCCO[C@@H](CNC(C)C)COc1cccc2ccccc12` [Propranolol Conjugate C]: the concentration for half-maximal inhibition (IC50) in assay [1] was found to be 4960 nM; in assay [2] (Table 1, 300 μM IBMX) it was 339 nM.

As for `COCCOCCOCCOCCOCCOCCOCCO[C@@H](CNC(C)C)COc1cccc2ccccc12` [Propranolol Conjugate D], in assay [2] (Table 1, 300 μM IBMX), the concentration for half-maximal inhibition (IC50) was 378 nM.

With `COCCOCCOCCOCCOCCOCCOCCOCC(=O)O[C@@H](CNC(C)C)COc1cccc2ccccc12` [Propranolol Conjugate E], in assay [2] (Table 1, 300 μM IBMX), the IC50 amounted to 1680 nM.

Regarding `COCCOCCOCCOCC(=O)O[C@@H](CNC(C)C)COc1cccc2ccccc12` [Propranolol Conjugate F], the IC50 in assay [1] turned out to be 5390 nM; in assay [2] (Table 1, 300 μM IBMX), 1660 nM.

Take `COCCOCCOCCOCCOCCOC(CNC(C)(C)C)COc1nsnc1N1CCOCC1` (stereo not shown) [Timolol Compound B]: the IC50 in assay [2] (Table 3, 300 μM IBMX) was found to be 1290 nM.

For `COCCOCCOCCOCCOCCOCCOCCOC(CNC(C)(C)C)COc1nsnc1N1CCOCC1` (stereo not shown) [Timolol Compound C], in assay [2] (Table 3, 300 μM IBMX), the IC50 came out at 603 nM.

Take `COCCOCCOCCOCCOCCOCCOCCOCCOC(CNC(C)(C)C)COc1nsnc1N1CCOCC1` (stereo not shown) [Timolol Compound D]: the half-maximal inhibitory concentration (IC50) in assay [2] (Table 3, 300 μM IBMX) came to 629 nM.

As a reminder, the IC50 is the point on the concentration scale where inhibition reaches its midpoint.

The values are drawn from patent publication US10251959B2, “Oligomer-beta blocker conjugates” (Nektar Therapeutics, priority 2007, dated 2019).
